According to patent publication US11136320B2, “Fused ring derivative used as FGFR4 inhibitor” (JACOBIO PHARMACEUTICALS CO., LTD., priority 2019, dated 2021):

System: Hepatoma cell Hep3B (high expression of FGFR4 and FGF19)
Assay: Hepatoma cell proliferation inhibition experiment (MTS method)
Assay type: cell-based

For `CSC[C@@H](C)Nc1cc(NC(=O)N2CCCc3cc(CN4CCN(C)CC4=O)c(C=O)nc32)ncc1C#N` [Compound 4, (R)—N-(5-Cyano-4-((1-(methylthio)propan-2-yl)amino)pyridin-2-yl)-7-formyl-6-((4-methyl-2-oxopiperazin-1-yl)methyl)-3,4-dihydro-1,8-naphthyridine-1 (2H)-carboxamide], the “inhibitory effect on Hepatoma cell Hep3B compared with the reference compound” value was “better inhibitory effect” and the IC50 (Homo sapiens, Hep3B, 120 h incubation, read-out: Hep3B(IC50 μM)) was 0.014 µM.
